Source: patent EP1143968B9 (priority 1999, dated 2000)
Read-outs that look alike come from different tables or passages of the source.

Legend:
colon cancer/HT 29 = assay: cells; assay type: cell-based
Procedure: (§1) In studies performed in support of the invention, the in vitro cytotoxicity of 7-hexanoyl taxol was compared to paclitaxel. As described in Example 1, LC50 values, which signify the concentration of drug at which 50% of the cells are killed, were determined in five cell lines.
(§2) A suspension of each cell line which was diluted according to the particular cell type and the expected target cell density (5,000-40,000 cells per well based on cell growth characteristics) was added by pipet (100 µL) into a 96-well microtiter plate. The cells were allowed a pre-incubation period of 24 hours at 37°C for stabilization. At the end of the pre-incubation period (T0), dilutions of 7-hexanoyl taxol or paclitaxel were added in 100 µL aliquots to the microtiter plate wells. The cells were incubated in the presence of the drug for 48 hours under a 5% CO2 atmosphere at 100% humidity. The cells were assayed using the sulforhodamine B assay. A plate reader was used to read the optical densities.
(§3) The LC50 values were taken as the concentration of compound where 100 x (T-T0)/T0 = -50.

melanoma/M14 = assay: cells; assay type: cell-based
Procedure: as §1, §2, §3

melanoma/SK-MEL-2 = assay: cells; assay type: cell-based
Procedure: as §1, §2, §3

[1] = test system: non-small cell lung cancer/NCI H226; assay: cells; assay type: cell-based
Procedure: as §1, §2, §3

ovarian cancer/OVCAR-5 = assay: cells; assay type: cell-based
Procedure: as §1, §2, §3

[2] = Relative water solubility by reverse phase HPLC; conditions: for retention time: reverse phase column, silica with diphenylmethyl functionalities, mobile phase acetonitrile/water, longer retention = less water soluble
Procedure: The water solubility of 7-hexanoyl taxol relative to paclitaxel was determined via HPLC analysis using a reverse phase column and illustrations of the HPLC traces are shown in Fig. 2. The column employed was made of silica with the hydrophilic Si-OH functionalities converted to hydrophobic diphenylmethyl functionalities. The mobile phase was acetonitrile/water. In this column, a hydrophilic or water soluble test material is retained primarily in the aqueous mobile phase, resulting in the water soluble compounds eluting from the column earlier than hydrophobic or water insoluble compounds.

[3] = test system: coronary arteries of pigs; assay: In vivo testing of drug-loaded polymer stents in pig coronary arteries; conditions: for % Intimal Growth / % Diameter Stenosis: metal support/polymer segments stent, 1500 µg drug; for % Intimal Growth / % Diameter Stenosis / reduction in percent stenosis compared to the stent containing paclitaxel: 28 days; for % Diameter Stenosis: morphometric analysis; for reduction in percent stenosis compared to the stent containing paclitaxel: pigs
Procedure: In studies performed in support of the invention, polymeric materials containing 7-hexanoyl taxol were prepared from an acrylate/methyacrylate monomer mixture and polymerized using a methacrylate crosslinker, as described in Example 2. 7-hexanoyl taxol was incorporated into the polymer by contacting the polymer with a concentrated solution of the 7-hexanoyl taxol in a suitable organic solvent. Such polymeric materials, and polymeric materials similarly formed but with paclitaxel rather than 7-hexanoyl taxol, were used in combination with a support stent, as illustrated in Fig. 3C. The test and control stents were placed in the coronary arteries of pigs, as described in Example 3, and were left in vivo for 28 days. A metal stent not carrying a polymeric material was also placed into an-artery. At the time of insertion of the test and control stents, the coronary artery was characterized using a computer-based coronary angiography analysis system (Umans, V.A., et al., JACC 21(6):1382-1390, (1993)). Boundaries of a selected coronary artery segment were detected automatically from optically magnified and video-digitized regions of interest. The catheter used for insertion of the stents was used as a scaling device to determine the dimensions of the artery at the site of implantation. The original vessel diameter at the time of implantation was determined.
After the 28 day test period, the arteries were then explanted from the pig and pressure fixed for morphometric analysis. […] The percent stenosis was taken as one minus the stented vessel's minimum lumen diameter divided by the diameter of an unstented reference vessel time one-hundred. The percent intimal growth was also determined from the following equation: 1-[(stented vessel's minimum lumenal diameter)/(diameter of stented portion prior to stent placement)]*100. The balloon to artery ratio was also determined as a measure of the degree of distension of the vessel by the balloon.
In another study in support of the invention, stents were prepared as described in Examples 2 and 3. The polymeric materials carried either 7-hexanoyl taxol, paclitaxel or 7-xylosyltaxol. […] The stents were placed in coronary arteries of pigs, according to the procedure described above. After the test period, the percent diameter stenosis and neointimal thickness of the arteries were determined. The percentage of diameter stenosis was determined by two procedures, via quantative coronary angiography (QCA) and via morphometric evaluation of the vessels. The later procedure is described in Example 3. The former procedure, QCA, was performed according to the procedure of Umans, et al. described above, with lumen dimensions determined prior to explanting the vessels for morphometric analysis.
A polymer sleeve, prepared as described in Example 2, was placed about a metal, corrugated stent. The polymer sleeve contained 1500 µg of 7-hexanoyl taxol.
The two-drug loaded stents and two control metal stents with no polymer sleeve were placed into the coronary arteries of healthy Domestic Farm Swine pigs (Pork Power, Inc.) by conventional techniques using a commercially available catheter (Advanced Cardiovascular Systems). The stents were imaged during and after the insertion procedure to ensure proper placement using conventional angiographic imaging techniques. The metal control stents were placed in two different pigs, in one pig the stent was positioned in the left anterior descending artery and in the other pig in the right coronary artery. The comparative control stent containing paclitaxel was placed in one animal in the right coronary artery. The test stents containing 7-hexanoyl taxol were placed in two pigs, one stent in the right coronary artery and the other stent in the other pig in the left circumflex artery.

[4] = Table 3 study, stents in coronary arteries of pigs

Molecule `CCCCCC(=O)OC1CC2OCC2(OC(C)=O)C2C(OC(=O)c3ccccc3)C3(O)CC(OC(=O)C(O)C(NC(=O)c4ccccc4)c4ccccc4)C(C)=C(C(OC(C)=O)C(=O)C12C)C3(C)C` (stereo not drawn) [7-hexanoyl taxol] has a CC50 (colon cancer/HT 29; colon cancer/HT 29, 48 hours with drug, concentration at which 50% of the cells are killed, read-out: LC50 (the source's name)) of 30 µM, a CC50 (melanoma/M14; melanoma/M14, 48 hours with drug, read-out: LC50 (the source's name)) of 1.1 µM and a CC50 (melanoma/SK-MEL-2; melanoma/SK-MEL-2, 48 hours with drug, read-out: LC50 (the source's name)) greater than 100 µM. The CC50 ([1]; non-small cell lung cancer/NCI H226, 48 hours with drug, read-out: LC50 (the source's name)) was greater than 100 µM, the CC50 (ovarian cancer/OVCAR-5; ovarian cancer/OVCAR-5, 48 hours with drug, read-out: LC50 (the source's name)) was 50 µM and the “water solubility relative to paclitaxel” value ([2]; from the hydrophobic shift of HPLC retention time) was “less water soluble than paclitaxel”. For the same molecule, the retention time [2] was 30.9 min, the “intimal thickening compared to paclitaxel” value [3, 4] was “less” and the “percent stenosis compared to paclitaxel” value [3, 4] was “lower”. The “percent diameter stenosis compared to the water-soluble derivative, 7-xylosyltaxol” value ([3]; Table 3 study, stents in coronary arteries of pigs, QCA and morphometric evaluation) was “considerably lower”, the “% Intimal Growth” value ([3]; left circumflex artery) was 2.3% and the “% Diameter Stenosis” value ([3]; left circumflex artery) was 16%. For the same molecule, the “reduction in percent stenosis compared to the stent containing paclitaxel” value ([3]; one case (of the two stents with 7-hexanoyl taxol)) was “two-fold”, the “% Intimal Growth” value ([3]; right coronary artery) was -7.1% and the “% Diameter Stenosis” value ([3]; right coronary artery) was 4%. For the same molecule, the “reduction in percent stenosis compared to the stent containing paclitaxel” value ([3]; the other case (of the two stents with 7-hexanoyl taxol)) was roughly 8 fold.

Work on `CC(=O)O[C@H]1C(=O)[C@@]2(C)[C@H]([C@H](OC(=O)c3ccccc3)[C@]3(O)C[C@H](OC(=O)[C@H](O)[C@@H](NC(=O)c4ccccc4)c4ccccc4)C(C)=C1C3(C)C)[C@]1(OC(C)=O)CO[C@@H]1C[C@@H]2O` [Paclitaxel, reference compound] yielded a CC50 (colon cancer/HT 29; Homo sapiens, HT-29, 48 h, read-out: LC50) of 30 µM, a CC50 (melanoma/M14; 48 h, read-out: LC50) of 100 µM and a CC50 (melanoma/SK-MEL-2; Homo sapiens, SK-MEL-2, 48 h, read-out: LC50) of 100 µM. For the same molecule, the CC50 ([1]; Homo sapiens, NCI-H226, 48 h, read-out: LC50) was 70 µM, the CC50 (ovarian cancer/OVCAR-5; Homo sapiens, OVCAR-5, 48 h, read-out: LC50) was greater than 100 µM and the retention time [2] was 18.5 min. The “% Intimal Growth” value ([3]; right coronary artery) was 29.5% and the “% Diameter Stenosis” value ([3]; right coronary artery) was 34%.
